In patent US20230159556A1, “NOVEL PROTEIN KINASE INHIBITORS” (TENOVA PHARMACEUTICALS INC., priority 2020, published 2023):

Legend:
EGFR_L858R/T790M/C797S = target: T1, EGFR_L858R/T790M/C797S (Homo sapiens, UniProt P00533, C797S/L858R/T790M); assay: In vitro biochemical kinase assay (33P-ATP filter-binding, Reaction Biology)
T1 construct: Reaction Biology Corporation (contract assay provider)
Protocol: The biochemical kinase assay was performed at Reaction Biology Corporation (www.reactionbiology.com, Malvern, Pa.) following procedures described in the reference (Anastassiadis, T, et al, Nature Biotechnology, 2011, 29, 1039). Base Reaction buffer includes 20 mM Hepes (pH 7.5), 10 mM MgCl2, 1 mM EGTA, 0.02% Brij35, 0.02 mg/ml BSA, 0.1 mM Na3VO4, 2 mM DTT and 1% DMSO. Required cofactors are added individually to each kinase reaction. Testing compounds were dissolved in 100% DMSO to specific concentration. The serial dilution was conducted by Integra Viaflo Assist in DMSO. Compounds in 100% DMSO are into the kinase reaction mixture by Acoustic technology (Echo550; nanoliter range), incubate for 20 min at room temperature, followed by ^33P-ATP and incubation for 2 hours at room temperature. Radioactivity was then detected by filter-binding method. Kinase activity data were expressed as the percent remaining kinase activity in test samples compared to vehicle (dimethyl sulfoxide) reactions. IC50 values and curve fits were obtained using Prism (GraphPad Software).

[1] = target: Ba/F3_EGFR_del19/T790M/C797S cell (Homo sapiens, UniProt P00533, T790M/C797S, cells depend on it, form not given); assay: BaF3 cell proliferation assay (CelltiterGlo, 72 hr); format: cell-based; settings: 72 hr incubation; read-out: IC50 (nM, Ba/F3_EGFR_del19/T790M/C797S cell proliferation)
Protocol: (§1) The BaF3 cell proliferation assay was performed at Pharmaron (www.pharmaron.com, Beijing, China). The Ba/F3_WT and Ba/F3_Del19/T790M/C797S cell lines were maintained in 1640 medium containing 10% FBS, 1*PS and 1*Glutamax. Only cells with viability greater than 90% are used for assays. Dispense 30 μl of cell suspension at 700/well into 384 well microplate, add 30 nl compound solution into 384 cell plate by Echo, cells were incubated for 72 hr in 37° C./5% CO2 incubator, add 30 μl reagent CelltiterGlo assay kit (CTG, Promega) per well and shake plates, incubate the plate (avoiding light) at 37° C./5% CO2 for 30 min. and read the luminescence by Envision. The luminescence values were converted to % Inhibition. Calculate IC50 by fitting % inhibition values and log of compound concentrations to nonlinear regression (dose response−variable slope) with Graphpad 5.0.
(§2) Y=Bottom+(Top−Bottom)/(1+10^((Log IC50−X)*HillSlope))
(§3) X: log of inhibitor concentration; Y: % Inhibition.

Ba/F3_WT cell = assay: as above; format: cell-based; settings: Mus musculus, 72 hr incubation
Protocol: as §1, §2, §3

T1 sequence (P00533 25-1210 T790M/C797S/L858R): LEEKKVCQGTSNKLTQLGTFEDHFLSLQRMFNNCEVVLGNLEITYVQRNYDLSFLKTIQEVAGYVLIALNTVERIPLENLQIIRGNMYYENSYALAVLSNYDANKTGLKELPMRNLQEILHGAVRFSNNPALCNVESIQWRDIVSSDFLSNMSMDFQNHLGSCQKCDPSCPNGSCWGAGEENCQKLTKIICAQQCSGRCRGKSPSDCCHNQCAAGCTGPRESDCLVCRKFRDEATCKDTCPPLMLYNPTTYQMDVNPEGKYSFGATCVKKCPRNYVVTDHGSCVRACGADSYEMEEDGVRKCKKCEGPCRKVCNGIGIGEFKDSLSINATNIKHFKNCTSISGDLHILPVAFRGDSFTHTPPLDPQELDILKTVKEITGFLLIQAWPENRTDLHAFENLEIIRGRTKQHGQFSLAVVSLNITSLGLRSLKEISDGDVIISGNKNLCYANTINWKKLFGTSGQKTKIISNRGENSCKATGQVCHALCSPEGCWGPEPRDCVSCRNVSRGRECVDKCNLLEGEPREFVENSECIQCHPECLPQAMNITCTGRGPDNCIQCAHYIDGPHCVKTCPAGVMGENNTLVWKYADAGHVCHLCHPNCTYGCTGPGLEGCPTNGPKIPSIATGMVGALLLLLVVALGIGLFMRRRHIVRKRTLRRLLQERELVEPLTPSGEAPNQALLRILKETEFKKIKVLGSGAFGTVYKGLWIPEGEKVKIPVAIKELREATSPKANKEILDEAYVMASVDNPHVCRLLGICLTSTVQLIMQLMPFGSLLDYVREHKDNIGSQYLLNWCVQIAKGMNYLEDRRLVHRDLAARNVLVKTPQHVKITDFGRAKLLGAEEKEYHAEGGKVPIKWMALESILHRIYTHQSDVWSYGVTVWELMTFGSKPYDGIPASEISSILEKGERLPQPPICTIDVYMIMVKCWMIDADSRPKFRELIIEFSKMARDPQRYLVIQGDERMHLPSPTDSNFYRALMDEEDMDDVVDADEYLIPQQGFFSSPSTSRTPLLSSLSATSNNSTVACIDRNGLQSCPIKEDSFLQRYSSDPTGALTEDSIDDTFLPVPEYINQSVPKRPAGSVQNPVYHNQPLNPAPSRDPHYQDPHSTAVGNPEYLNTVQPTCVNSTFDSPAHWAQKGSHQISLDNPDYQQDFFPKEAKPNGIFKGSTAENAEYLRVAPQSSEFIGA
Sequence of Ba/F3_EGFR_del19/T790M/C797S cell (P00533 with tags, fused parts or gaps DEL746-750/T790M/C797S, form open): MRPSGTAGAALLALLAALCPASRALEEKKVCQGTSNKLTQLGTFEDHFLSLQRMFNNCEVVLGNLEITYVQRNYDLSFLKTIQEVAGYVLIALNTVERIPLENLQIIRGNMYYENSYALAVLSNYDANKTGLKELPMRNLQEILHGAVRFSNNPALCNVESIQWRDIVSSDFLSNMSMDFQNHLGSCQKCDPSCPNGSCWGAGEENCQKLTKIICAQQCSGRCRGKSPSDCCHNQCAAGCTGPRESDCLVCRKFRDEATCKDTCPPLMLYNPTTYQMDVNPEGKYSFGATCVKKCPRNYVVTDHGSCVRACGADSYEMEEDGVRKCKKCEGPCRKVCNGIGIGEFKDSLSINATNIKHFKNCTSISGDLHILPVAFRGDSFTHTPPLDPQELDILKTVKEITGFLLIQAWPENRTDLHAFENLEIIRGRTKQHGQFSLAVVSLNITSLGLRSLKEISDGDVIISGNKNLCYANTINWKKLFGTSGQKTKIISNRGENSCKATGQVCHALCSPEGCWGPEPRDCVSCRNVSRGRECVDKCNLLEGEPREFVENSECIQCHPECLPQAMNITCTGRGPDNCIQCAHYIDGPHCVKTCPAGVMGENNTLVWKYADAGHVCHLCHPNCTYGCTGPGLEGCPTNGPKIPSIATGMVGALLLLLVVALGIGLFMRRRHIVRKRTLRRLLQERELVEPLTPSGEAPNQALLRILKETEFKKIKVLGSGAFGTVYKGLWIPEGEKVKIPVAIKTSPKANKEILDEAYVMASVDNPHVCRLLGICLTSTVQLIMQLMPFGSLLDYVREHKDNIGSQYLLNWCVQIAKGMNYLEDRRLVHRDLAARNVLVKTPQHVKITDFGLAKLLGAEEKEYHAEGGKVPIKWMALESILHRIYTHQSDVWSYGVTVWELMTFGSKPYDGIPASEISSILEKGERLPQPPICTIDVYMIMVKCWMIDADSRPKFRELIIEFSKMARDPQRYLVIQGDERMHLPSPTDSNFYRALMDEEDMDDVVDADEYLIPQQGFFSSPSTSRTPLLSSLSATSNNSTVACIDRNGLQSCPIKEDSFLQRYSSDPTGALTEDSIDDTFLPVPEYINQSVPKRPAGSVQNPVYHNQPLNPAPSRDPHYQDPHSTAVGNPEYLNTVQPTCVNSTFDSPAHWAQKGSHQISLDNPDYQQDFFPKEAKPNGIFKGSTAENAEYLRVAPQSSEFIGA

Compound | IC50 (EGFR_L858R/T790M/C797S) | GI50 [1] | IC50 (Ba/F3_WT cell)
COc1cc(N2CCC(N(C)C)C2)c2cc1Nc1ncc(Cl)c(n1)Nc1ccc(cc1N(C)S(C)(=O)=O)OCCCCC2 (centres unmarked) [Compound A27, N-(3^5-chloro-1^4-(3-(dimethylamino)pyrrolidin-1-yl)-1^6-methoxy-6-oxa-2,4-diaza-3(2,4)-pyrimidina-1(1,3),5(1,4)-dibenzenacycloundecaphane-5^2-yl)-N-methylmethanesulfonamide] | 2.3 nM | 330 nM | 3400 nM
COc1cc(N2C[C@H]3CN(C)C[C@H]3C2)c2cc1Nc1ncc(Cl)c(n1)Nc1ccc(cc1N(C)S(C)(=O)=O)OCCCCC2 [Compound A28, N-(3^5-chloro-1^6-methoxy-1^4-((cis-3,6)-5-methylhexahydropyrrolo[3,4-c]pyrrol-2(1H)-yl)-6-oxa-2,4-diaza-3(2,4)-pyrimidina-1(1,3),5(1,4)-dibenzenacycloundecaphane-5^2-yl)-N-methylmethanesulfonamide] | 1.4 nM | 194 nM | 2970 nM
CCS(=O)(=O)N(C)c1cc2ccc1Nc1nc(ncc1Cl)Nc1cc(c(N3CCN(C)CC3)cc1OC)CCCCCO2 [Compound A8, N-(3^5-chloro-1^6-methoxy-1^4-(4-methylpiperazin-1-yl)-6-oxa-2,4-diaza-3(2,4)-pyrimidina-1(1,3),5(1,4)-dibenzenacycloundecaphane-5^2-yl)-N-methylethanesulfonamide] | 2.7 nM | 538 nM | 3430 nM
COc1cc(N2CCC(N3CCN(C)CC3)CC2)c2cc1Nc1ncc(Cl)c(n1)Nc1ccc(cc1S(=O)(=O)C(C)C)OCCCCC2 [Compound A26, 3^5-chloro-5^2-(isopropylsulfonyl)-16-methoxy-1^4-(4-(4-methylpiperazin-1-yl)piperidin-1-yl)-6-oxa-2,4-diaza-3(2,4)-pyrimidina-1(1,3),5(1,4)-dibenzenacycloundecaphane] | 250 nM | 1110 nM | 1790 nM
COc1cc(N2CCN(C)CC2)c2cc1Nc1ncc(Cl)c(n1)Nc1ccc(cc1N(C)S(C)(=O)=O)OCCCC2 [Compound A4, N-(3^5-chloro-1^6-methoxy-1^4-(4-methylpiperazin-1-yl)-6-oxa-2,4-diaza-3(2,4)-pyrimidina-1(1,3),5(1,4)-dibenzenacyclodecaphane-5^2-yl)-N-methylmethanesulfonamide] | 46.5 nM | 252 nM | 3320 nM
CCN(c1cc2ccc1Nc1nc(ncc1Cl)Nc1cc(c(N3CCN(C)CC3)cc1OC)CCCCCO2)S(C)(=O)=O [Compound A10, N-(3^5-chloro-1^6-methoxy-1^4-(4-methylpiperazin-1-yl)-6-oxa-2,4-diaza-3(2,4)-pyrimidina-1(1,3),5(1,4)-dibenzenacycloundecaphane-5^2-yl)-N-ethylmethanesulfonamide] | 0.5 nM | 125 nM | 1840 nM
COc1cc(N2CCN(C)CC2)c2cc1Nc1ncc(C(F)(F)F)c(n1)Nc1ccc(cc1N(C)S(C)(=O)=O)OCCCCC2 [Compound A13, N-(1^6-methoxy-1^4-(4-methylpiperazin-1-yl)-3^5-(trifluoromethyl)-6-oxa-2,4-diaza-3(2,4)-pyrimidina-1(1,3),5(1,4)-dibenzenacycloundecaphane-5^2-yl)-N-methylmethanesulfonamide] | 2 nM | 108 nM | 3770 nM
COc1cc(N2CCN(C)CC2)c2cc1Nc1ncc(Br)c(n1)Nc1ccc(cc1P(C)(C)=O)OCCCC2 [Compound A35, (3^5-bromo-1^6-methoxy-1^4-(4-methylpiperazin-1-yl)-6-oxa-2,4-diaza-3(2,4)-pyrimidina-1(1,3),5(1,4)-dibenzenacyclodecaphane-5^2-yl)dimethylphosphine oxide] | 289 nM | 1050 nM | 2240 nM
COc1cc(N2CCN(C(C)=O)CC2)c2cc1Nc1ncc(Cl)c(n1)Nc1ccc(cc1N(C)S(C)(=O)=O)OCCCCC2 [Compound A31, N-(1^4-(4-acetylpiperazin-1-yl)-3^5-chloro-1^6-methoxy-6-oxa-2,4-diaza-3(2,4)-pyrimidina-1(1,3),5(1,4)-dibenzenacycloundecaphane-5^2-yl)-N-methylmethanesulfonamide] | 12.7 nM | 154 nM | > 10000 nM
COc1cc(N2CCN(C)CC2)c2cc1Nc1ncc(Cl)c(n1)Nc1ccc(cc1N(C)S(C)(=O)=O)OCCCCCC2 [Compound A14, N-(3^5-chloro-1^6-methoxy-1^4-(4-methylpiperazin-1-yl)-6-oxa-2,4-diaza-3(2,4)-pyrimidina-1(1,3),5(1,4)-dibenzenacyclododecaphane-5^2-yl)-N-methylmethanesulfonamide] | 16.7 nM | 897 nM | 2960 nM
COc1cc(N2CCN(C)CC2)c2cc1Nc1ncc(Cl)c(n1)Nc1ccc(cc1NS(C)(=O)=O)OCCCCC2 [Compound A16, N-(3^5-chloro-1^6-methoxy-1^4-(4-methylpiperazin-1-yl)-6-oxa-2,4-diaza-3(2,4)-pyrimidina-1(1,3),5(1,4)-dibenzenacycloundecaphane-5^2-yl)methanesulfonamide] | 20.3 nM | – | –
COc1cc(N2CCC(N3CCOCC3)CC2)c2cc1Nc1ncc(Cl)c(n1)Nc1ccc(cc1N(C)S(C)(=O)=O)OCCCCC2 [Compound A32, N-(3^5-chloro-1^6-methoxy-1^4-(4-morpholinopiperidin-1-yl)-6-oxa-2,4-diaza-3(2,4)-pyrimidina-1(1,3),5(1,4)-dibenzenacycloundecaphane-5^2-yl)-N-methylmethanesulfonamide] | 0.6 nM | 106 nM | 4840 nM
CC(C)Oc1cc(N2CCN(C)CC2)c2cc1Nc1ncc(Cl)c(n1)Nc1ccc(cc1N(C)S(C)(=O)=O)OCCCCC2 [Compound A22, N-(3^5-chloro-1^6-isopropoxy-1^4-(4-methylpiperazin-1-yl)-6-oxa-2,4-diaza-3(2,4)-pyrimidina-1(1,3),5(1,4)-dibenzenacycloundecaphane-5^2-yl)-N-methylmethanesulfonamide] | 503 nM | – | –
COc1cc(N(C)CCN(C)C)c2cc1Nc1ncc(Cl)c(n1)Nc1ccc(cc1N(C)S(C)(=O)=O)OCCCCC2 [Compound A5, N-(3^5-chloro-1^4-((2-(dimethylamino)ethyl)(methyl)amino)-1^6-methoxy-6-oxa-2,4-diaza-3(2,4)-pyrimidina-1(1,3),5(1,4)-dibenzenacycloundecaphane-5^2-yl)-N-methylmethanesulfonamide] | 27.9 nM | – | –
COc1cc(N2CCC(N3CCC(N(C)C)CC3)CC2)c2cc1Nc1ncc(Br)c(n1)Nc1ccc(cc1N(C)S(C)(=O)=O)OCCCCC2 [Compound A37, N-(3^5-bromo-1^4-(4-(dimethylamino)-[1,4′-bipiperidin]-1′-yl)-1^6-methoxy-6-oxa-2,4-diaza-3(2,4)-pyrimidina-1(1,3),5(1,4)-dibenzenacycloundecaphane-5^2-yl)-N-methylmethanesulfonamide] | 0.6 nM | – | –
COc1cc(N2CCC3(CC2)CN(C)C3)c2cc1Nc1ncc(Br)c(n1)Nc1ccc(cc1N(C)S(C)(=O)=O)OCCCCC2 [Compound A38, N-(3^5-bromo-1^6-methoxy-1^4-(2-methyl-2,7-diazaspiro[3.5]nonan-7-yl)-6-oxa-2,4-diaza-3(2,4)-pyrimidina-1(1,3),5(1,4)-dibenzenacycloundecaphane-5^2-yl)-N-methylmethanesulfonamide] | 0.3 nM | – | –
CCOc1cc(N2CCN(C)CC2)c2cc1Nc1ncc(Cl)c(n1)Nc1ccc(cc1N(C)S(C)(=O)=O)OCCCCC2 [Compound A21, N-(3^5-chloro-1^6-ethoxy-1^4-(4-methylpiperazin-1-yl)-6-oxa-2,4-diaza-3(2,4)-pyrimidina-1(1,3),5(1,4)-dibenzenacycloundecaphane-5^2-yl)-N-methylmethanesulfonamide] | 40.5 nM | – | –
COc1cc(N2CCN(C)CC2)c2cc1Nc1ncc(Cl)c(n1)Nc1ccc(cc1N(C)S(=O)(=O)C(C)C)OCCCCC2 [Compound A17, N-(3^5-chloro-1^6-methoxy-1^4-(4-methylpiperazin-1-yl)-6-oxa-2,4-diaza-3(2,4)-pyrimidina-1(1,3),5(1,4)-dibenzenacycloundecaphane-5^2-yl)-N-methylpropane-2-sulfonamide] | 82.2 nM | – | –
COc1cc(N2CCN(C)CC2)c2cc1Nc1ncc(Cl)c(n1)Nc1ccc(cc1C(=O)N(C)C)OCCCCCC2 [Compound A25, 3^5-chloro-1^6-methoxy-N,N-dimethyl-1^4-(4-methylpiperazin-1-yl)-6-oxa-2,4-diaza-3(2,4)-pyrimidina-1(1,3),5(1,4)-dibenzenacyclododecaphane-5^2-carboxamide] | 2510 nM | – | –
